These results are taken from patent US20050043379A1, “LTA4H Modulators” (priority 2003, published 2005).

Each structure is given as a SMILES string. Counter-ions that a name gives are not always drawn.

One assay has as its system ionophore-induced LTB4 production.
Assay: not given
Particulars: oral administration; cited from earlier work.
`CN(CCCOc1ccc(Cc2ccccc2)cc1)CCC(=O)O.Cl` [SC57461]: the “inhibition of ionophore-induced LTB4 production in rat peritoneum in vivo” value was “caused inhibition of ionophore-induced LTB4 production”.

For another assay, the system named is colitis symptoms.
Assay: not given
Particulars: eight weeks of treatment; cited from earlier work.
For `CN(CCCOc1ccc(Cc2ccccc2)cc1)CCC(=O)O.Cl` [SC57461], the colitis symptoms result is on record as “significantly improved colitis symptoms”.

Another assay has as its system neutrophil influx (myeloperoxidase activity) in arachidonic acid-treated ear. Put plainly: Murine arachidonic acid-induced inflammation model: neutrophil influx by myeloperoxidase (MPO) activity in ear biopsies. The conditions noted are these: Mus musculus, TABLE 7, 30 mg/kg oral gavage, ear biopsies 3 h after topical arachidonic acid (given 60 min after dose), read-out: % Inh. MPO. In kind it is in vivo, mouse (female Balb/c). As to the method:
Murine Arachidonic Acid-induced Inflammation Model LTA4H inhibitor compounds of the present invention were dissolved in 20% cyclodextran/H2O at a concentration of 3 mg/mL. The solutions were administered by oral gavage to female Balb/c mice weighing approximately 20 grams each (0.2 mL per mouse, 30 mg of LTA4H inhibitor compound per kg). Sixty minutes after being administered an LTA4 inhibitor, each mouse received topical application of 20 μL of arachidonic acid (100 mg/mL in acetone) to the left ear and 20 μL of acetone only to the right ear. After 3 h, the mice were sacrificed, blood was withdrawn in heparinized syringes, and 8 mm ear biopsies were taken. Ear biopsies were weighed to determine edema and then frozen at -80° C. until needed for determination of neutrophil influx. Neutrophil influx was quantified by measuring the activity of myeloperoxidase (MPO), a neutrophil-specific enzyme. […] Debris was removed by centrifugation at 14000×g for 10 min. […] The microtiter plate contents were held at room temperature for 1 h. The reaction was stopped by addition of 100 μ[…] H2SO4 to each sample well, and the myeloperoxidase activity in each sample was determined from the absorbance at 405 nm. The background value from the right ear, treated only with acetone, was subtracted from that for the left ear, treated with arachidonic acid in acetone, for each animal. The percent inhibition of neutrophil influx (% Inh. MPO) by compounds of the invention was determined by comparison to animals treated identically, except that the solution administered by oral gavage was devoid of inhibitor compound.
As for `c1ccc2oc(Oc3ccc(OCCN4CCCCC4)cc3)nc2c1` [Example 11, 2-[4-(2-Piperidin-1-yl-ethoxy)-phenoxy]-benzooxazole], the inhibition at 30 mg/kg amounted to 95%.
Take `OC1CCN(CCOc2ccc(Oc3nc4ccccc4o3)cc2)CC1` [Example 14, 1-{2-[4-(Benzooxazol-2-yloxy)-phenoxy]-ethyl}-piperidin-4-ol]: the inhibition at 30 mg/kg was determined as 56%.
As to `OC1(c2ccccc2)CCN(CCCOc2ccc(Oc3nc4ccccc4o3)cc2)CC1` [Example 27, 1-{3-[4-(Benzooxazol-2-yloxy)-phenoxy]-propyl}-4-phenyl-piperidin-4-ol], the inhibition at 30 mg/kg was 72%.

The assay is the same for the next values; noted with them: Mus musculus, TABLE 8, 30 mg/kg oral gavage, ear biopsies 3 h after topical arachidonic acid (given 60 min after dose), read-out: % Inh. MPO.
In the case of `O=C(O)C1CCN(CCc2ccc(Oc3nc4ccccc4s3)cc2)CC1` [Example 150, 1-{2-[4-(Benzothiazol-2-yloxy)-phenyl]-ethyl}-piperidine-4-carboxylic acid], the inhibition at 30 mg/kg was found to be 91%.
Still for that read-out and setting: the value for `O=C(O)C1CCCN(CCc2ccc(Oc3nc4ccccc4s3)cc2)C1` (stereo not drawn) [Example 155, 1-{2-[4-(Benzothiazol-2-yloxy)-phenyl]-ethyl}-piperidine-3-carboxylic acid] was 93%.
On the same count and under the same terms, the value for `c1ccc2sc(Oc3ccc(OCCn4nnnc4C4CCNCC4)cc3)nc2c1` [Example 206, 2-{4-[2-(5-Piperidin-4-yl-tetrazol-1-yl)-ethoxy]-phenoxy}-benzothiazole] was 76%; that for `O=C(O)C1CCN(Cc2ccc(Oc3nc4ccccc4s3)cc2)CC1` [Example 250, 1-[4-(Benzothiazol-2-yloxy)-benzyl]-piperidine-4-carboxylic acid] was 94%.
As to `OCC1CCCCN1CCOc1ccc(Oc2nc3ccccc3s2)cc1` (stereo not drawn) [Example 263, (1-{2-[4-(Benzothiazol-2-yloxy)-phenoxy]-ethyl}-piperidin-2-yl)-methanol], the inhibition at 30 mg/kg was found to be 19%.
Same read-out and setting: the same measure for `NC(=O)C1CCN(Cc2ccc(Oc3nc4ccccc4s3)cc2)CC1` [Example 274, 1-[4-(Benzothiazol-2-yloxy)-benzyl]-piperidine-4-carboxylic acid amide]: 87%; for `O=C(CO)N1CCN(CCc2ccc(Oc3nc4ccccc4s3)cc2)CC1` [Example 325, 1-(4-{2-[4-(Benzothiazol-2-yloxy)-phenyl]-ethyl}-piperazin-1-yl)-2-hydroxy-ethanone]: 67%.
In the case of `O=C1C[C@H](O)CN1C1CCN(CCc2ccc(Oc3nc4ccccc4s3)cc2)CC1` [Example 336, (S)-1-(1-{2-[4-(Benzothiazol-2-yloxy)-phenyl]-ethyl}-piperidin-4-yl)-4-hydroxy-pyrrolidin-2-one], the inhibition at 30 mg/kg was 0%.
With `CS(=O)(=O)NC1CCN(Cc2ccc(Oc3nc4ccccc4s3)cc2)CC1` [Example 361, N-{1-[4-(Benzothiazol-2-yloxy)-benzyl]-piperidin-4-yl}-methanesulfonamide], the inhibition at 30 mg/kg is 90%.
The same measure, in the same setting: the same measure for `O=C1C[C@@H](O)CN1C1CCN(Cc2ccc(Oc3nc4ccccc4s3)cc2)CC1` [Example 446, 1-{1-[4-(Benzothiazol-2-yloxy)-benzyl]-piperidin-4-yl}-4-hydroxy-pyrrolidin-2-one]: 43%.
Regarding `O=C1C[C@H](O)CN1C1CCN(Cc2ccc(Oc3nc4ccccc4s3)cc2)CC1` [Example 447, 1-{1-[4-(Benzothiazol-2-yloxy)-benzyl]-piperidin-4-yl}-4-hydroxy-pyrrolidin-2-one], the inhibition at 30 mg/kg is 48%.

The assay is the same for the next values; noted with them: Mus musculus, po, read-out: % Inh. MPO.
On to `O=C(O)C1CCN(CCOc2ccc(Oc3nc4ccccc4s3)cc2)CC1` [Example 18, 1-{2-[4-(Benzothiazol-2-yloxy)-phenoxy]-ethyl}-piperidine-4-carboxylic acid potassium salt], for which the inhibition at 30 mg/kg worked out at 83%.

Another assay deals with ionophore-induced LTB4 production.
Assay: not given
The conditions noted are these: oral administration; cited from earlier work. This is another data set of the same source.
With `CN(CCCOc1ccc(Cc2ccccc2)cc1)CCC(=O)O.Cl` [SC57461], the “inhibition of ionophore-induced LTB4 production in mouse blood ex vivo” value was “caused inhibition of ionophore-induced LTB4 production”.
